The record followed here is patent US8580829B2 (Boehringer Ingelheim International GmbH, priority 2010, dated 2013).

In general, IC50 refers to the concentration that gives 50% inhibition.

Assay [1] deals with T1, recombinant human FLAP protein (Homo sapiens, UniProt P20292).
T1 construct: made in house; host or cells: Sf9 insect cells (100,000 x g membrane fraction)
T1 sequence (P20292 1-161): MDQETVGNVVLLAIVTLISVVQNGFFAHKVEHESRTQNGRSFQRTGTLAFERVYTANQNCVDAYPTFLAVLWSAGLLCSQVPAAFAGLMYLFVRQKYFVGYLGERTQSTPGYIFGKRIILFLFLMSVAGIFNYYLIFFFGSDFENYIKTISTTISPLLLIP
The assay is described as follows: FLAP binding assay (Scintillation Proximity Assay, displacement of [125I]L-691,831). Conditions: recombinant human FLAP membranes, [125I]L-691,831 probe; read-out: FLAP SPA IC50. The procedure:
Cell pellets produced from sf9 insect cells expressing recombinant human FLAP protein are resuspended in buffer A [15 mM Tris-HCl (pH 7.5), 2 mM MgCl2, 0.3 mM EDTA, 1 mM PMSF]. The cells are lysed with a Dounce homogenizer and the material is centrifuged at 10,000×g for 10 minutes. The supernatant is then collected and centrifuged at 100,000×g for 60 minutes. To prepare membrane protein for an assay, an aliquot of the 100,000×g pellet is resuspended in 1 ml of buffer A, Dounce homogenized, and finally subjected to polytron mixing (30 seconds). Membrane protein (25 μl, 5 μg) is mixed with WGA SPA beads (Amersham) and stirred for 1 h.
(In a scintillation proximity assay essentially only radioactivity close to the scintillant gives light.)

The test system of assay [2] is synthesis of LTB4 in human whole blood. As to the kind of experiment: human whole blood LTB4 production inhibition assay. The assay is classed as cell-based. Conditions: Homo sapiens, heparinized human whole blood, calcimycin 20 μM; read-out: hWB LTB4 IC50. The protocol:
Compounds are additionally tested in a human whole blood assay to determine their ability to inhibit the synthesis of LTB4 in a cellular system. Compounds are combined with heparinized human whole blood and incubated for 15 minutes at 37° C. Calcimycin (20 μM final, prepared in phosphate-buffered saline, pH 7.4) is then added and the mixture is incubated for another 30 minutes at 37° C. The samples are centrifuged for 5 min at low speed (1500×g) and the plasma layer is removed. Plasma LTB4 concentrations are then measured using an antibody-based homogenous time-resolved fluorescence method (CisBio, Bedford, Mass.).

On to `Cc1cc(C)c(-c2nc(C3(c4ccc(-c5cnc(N)nc5)cc4)CCC3)no2)c(=O)[nH]1` [Example 58, 3-(3-{1-[4-(2-Amino-pyrimidin-5-yl)-phenyl]-cyclobutyl}-1,2,4-oxadiazol-5-yl)-4,6-dimethyl-1H-pyridin-2-one], for which the IC50 was 0.002 µM in assay [1] and more than 5 µM in assay [2].

On to `Cn1cc(-c2nc(C3(c4ccc(-c5cnc6[nH]ccc6n5)cc4)CCC3)no2)cn1` [Example 262, 2-(4-{1-[5-(1-Methyl-1H-pyrazol-4-yl)-[1,2,4]oxadiazol-3-yl]-cyclobutyl}-phenyl)-5H-pyrrolo[2,3-b]pyrazine], for which the IC50 was found to be 0.0024 µM in assay [1] and 0.027 µM in assay [2].

Consider `Cn1cnc(-c2nc(C3(c4ccc(-c5ccc(N)nc5)cc4)CCC3)no2)c1` [Example 305, 5-(4-{1-[5-(1-Methyl-1H-imidazol-4-yl)-[1,2,4]oxadiazol-3-yl]-cyclobutyl}-phenyl)-pyridin-2-ylamine], for which the results for the half-maximal inhibitory concentration (IC50) in assay [1] and in assay [2] were 0.015 µM and 0.12 µM, respectively.

As for `Nc1cnc(-c2ccc(C3(c4noc(-c5cnn(C6COC6)c5)n4)CCC3)cc2)cn1` [Example 299, 5-(4-{1-[5-(1-Oxetan-3-yl-1H-pyrazol-4-yl)-[1,2,4]oxadiazol-3-yl]-cyclobutyl}-phenyl)-pyrazin-2-ylamine; compound with trifluoro-acetic acid], the 50% inhibitory concentration (IC50) in assay [1] was determined as 0.0029 µM; in assay [2], 0.024 µM.

In the case of `COc1cc(-c2nc(C3(c4ccc(-c5cnc(N)nc5)cc4)CCC3)no2)on1` [Example 33, 5-(4-{1-[5-(3-Methoxy-isoxazol-5-yl)-1,2,4-oxadiazol-3-yl]-cyclobutyl}-phenyl)-pyrimidin-2-ylamine], the IC50 in assay [1] worked out at 0.004 µM; in assay [2] it was 0.55 µM.

As to `CC(CN(C)C)n1cc(-c2nc(C3(c4ccc(-c5cnc(N)nc5)cc4)CCC3)no2)cn1` (centres unmarked) [Example 249, 5-[4-(1-{5-[1-(2-Dimethylamino-1-methyl-ethyl)-1H-pyrazol-4-yl]-[1,2,4]oxadiazol-3-yl}-cyclobutyl)-phenyl]-pyrimidin-2-ylamine], the values for the IC50 in assay [1] and in assay [2] were 0.0078 µM and 0.069 µM, respectively.

As for `Nc1ncc(-c2ccc(C3(c4noc(-c5cn(C6COC6)cn5)n4)CCC3)cc2)cn1` [Example 263, 5-(4-{1-[5-(1-Oxetan-3-yl-1H-imidazol-4-yl)-[1,2,4]oxadiazol-3-yl]-cyclobutyl}-phenyl)-pyrimidin-2-ylamine], the IC50 is 0.016 µM in assay [1] and 0.19 µM in assay [2].

With `CN(C)C(=O)C(C)(C)n1cc(-c2nc(C3(c4ccc(-c5cnc(N)nc5)cc4)CCC3)no2)cn1` [Example 128, 2-[4-(3-{1-[4-(2-amino-pyrimidin-5-yl)-phenyl]-cyclobutyl}-1,2,4-oxadiazol-5-yl)-pyrazol-1-yl]-N,N-dimethyl-isobutyramide], the IC50 turned out to be 0.0067 µM in assay [1] and 0.18 µM in assay [2].

Consider `CCn1nc(C)cc1-c1nc(C2(c3ccc(-c4cnc(N)nc4)cc3)CCC2)no1` [Example 162, 5-(4-{1-[5-(2-Ethyl-5-methyl-2H-pyrazol-3-yl)-1,2,4-oxadiazol-3-yl]-cyclobutyl}-phenyl)-pyrimidin-2-ylamine], for which the IC50 in assay [1] amounted to 0.0064 µM; in assay [2], 1 µM.

Consider `Nc1ncc(-c2ccc(C3(c4noc(-c5ccc(C(=O)N6CCC(O)C6)nc5)n4)CCC3)cc2)cn1` (centres unmarked) [Example 60, [5-(3-{1-[4-(2-Amino-pyrimidin-5-yl)-phenyl]-cyclobutyl]-1,2,4-oxadiazol-5-yl)-pyridin-2-yl]-(3-hydroxy-pyrrolidin-1-yl)-methanone], for which the results for the IC50 in assay [1] and in assay [2] were 0.0047 µM and 0.15 µM, respectively.

As for `CSCCn1cc(-c2nc(C3(c4ccc(-c5cnc(N)nc5)cc4)CCC3)no2)cn1` [Example 230, 5-[4-(1-{5-[1-(2-Methylsulfanyl-ethyl)-1H-pyrazol-4-yl]-[1,2,4]oxadiazol-3-yl}-cyclobutyl)-phenyl]-pyrimidin-2-ylamine], the figures for the IC50 in assay [1] and in assay [2] were 0.0013 µM and 0.064 µM, respectively.

For `CCNC(=O)Cn1cc(-c2nc(C3(c4ccc(-c5cnc(N)nc5)cc4)CCC3)no2)cn1` [Example 130, 2-[4-(3-{1-[4-(2-Amino-pyrimidin-5-yl)-phenyl]-cyclobutyl}-1,2,4-oxadiazol-5-yl)-pyrazol-1-yl]-N-ethyl-acetamide], the IC50 worked out at 0.0015 µM in assay [1] and 0.075 µM in assay [2].

Turning to `Nc1ncc(-c2ccc(C3(c4noc(N5CCCCC5)n4)CCC3)cc2)cn1` [Example 80, 5-{4-[1-(5-Piperidin-1-yl-1,2,4-oxadiazol-3-yl)-cyclobutyl]-phenyl}-pyrimidin-2-ylamine], the figures for the half-maximal inhibitory concentration (IC50) in assay [1] and in assay [2] were 0.0065 µM and 0.39 µM, respectively.

Take `Cc1cc(-c2nc(C3(c4ccc(-c5cnc(N)nc5)cc4)CCC3)no2)on1` [Example 157]: the values for the half-inhibitory concentration (IC50) in assay [1] and in assay [2] were 0.0041 µM and 0.69 µM, respectively.

`CN(CCO)C(=O)c1ccc(-c2nc(C3(c4ccc(-c5cnc(N)nc5)cc4)CCC3)no2)cn1` [Example 78, 5-(3-{1-[4-(2-Amino-pyrimidin-5-yl)-phenyl]-cyclobutyl}-1,2,4-oxadiazol-5-yl)-pyridine-2-carboxylic acid (2-hydroxy-ethyl)-methyl-amide]: the IC50 in assay [1] amounted to 0.0088 µM; in assay [2] it was 0.16 µM.

Regarding `CN(C)C(=O)c1ccc(-c2nc(C3(c4ccc(-c5cnc(N)nc5)cc4)CCC3)no2)cn1` [Example 29, 5-(3-{1-[4-(2-Amino-pyrimidin-5-yl)-phenyl]-cyclobutyl}-1,2,4-oxadiazol-5-yl)-pyridine-2-carboxylic acid dimethylamide], the values for the IC50 in assay [1] and in assay [2] were 0.0069 µM and 0.19 µM, respectively.

`CN(C)CCN(C)c1cnc(-c2nc(C3(c4ccc(-c5cnc(N)nc5)cc4)CCC3)no2)cn1` [Example 271, N-[5-(3-{1-[4-(2-Amino-pyrimidin-5-yl)-phenyl]-cyclobutyl}-[1,2,4]oxadiazol-5-yl)-pyrazin-2-yl]-N,N′,N′-trimethyl-ethane-1,2-diamine]: the IC50 in assay [1] came out at 0.0053 µM; in assay [2] it was 0.044 µM.

On to `CNC(=O)c1ccc(-c2nc(C3(c4ccc(-c5cnc(N)nc5)cc4)CCC3)no2)cn1` [Example 28, 5-(3-{1-[4-(2-Amino-pyrimidin-5-yl)-phenyl]-cyclobutyl}-1,2,4-oxadiazol-5-yl)-pyridine-2-carboxylic acid methylamide], for which the IC50 in assay [1] is 0.0043 µM; in assay [2] it was 0.32 µM.

In the case of `Cc1nocc1-c1nc(C2(c3ccc(-c4cnc(N)nc4)cc3)CCC2)no1` [Example 163, 5-(4-{1-[5-(3-Methyl-isoxazol-4-yl)-1,2,4-oxadiazol-3-yl]-cyclobutyl}-phenyl)-pyrimidin-2-ylamine], the IC50 was determined as 0.004 µM in assay [1] and 0.45 µM in assay [2].

With `CN(CC1CCCO1)C(=O)Cn1cc(-c2nc(C3(c4ccc(-c5cnc(N)nc5)cc4)CCC3)no2)cn1` (centres unmarked) [Example 242, 2-[4-(3-{1-[4-(2-Amino-pyrimidin-5-yl)-phenyl]-cyclobutyl}-[1,2,4]oxadiazol-5-yl)-pyrazol-1-yl]-N-methyl-N-(tetrahydro-furan-2-ylmethyl)-acetamide], the IC50 in assay [1] came to 0.0054 µM; in assay [2], 0.12 µM.

Regarding `Cn1cc(-c2nc(C3(c4ccc(-c5ccc(N)nc5)cc4)CCC3)no2)cn1` [Example 215, 5-(4-{1-[5-(1-Methyl-1H-pyrazol-4-yl)-[1,2,4]oxadiazol-3-yl]-cyclobutyl}-phenyl)-pyridin-2-ylamine], the IC50 in assay [1] came to 0.0021 µM; in assay [2] it was 0.026 µM.

In the case of `Nc1ncc(-c2ccc(C3(c4noc(-c5cccn(CCO)c5=O)n4)CCC3)cc2)cn1` [Example 67, 3-(3-{1-[4-(2-Amino-pyrimidin-5-yl)-phenyl]-cyclobutyl}-1,2,4-oxadiazol-5-yl)-1-(2-hydroxy-ethyl)-1H-pyridin-2-one], the 50% inhibitory concentration (IC50) in assay [1] came out at 0.012 µM; in assay [2], 0.29 µM.

On to `CCN(C)C(=O)Cn1cc(-c2nc(C3(c4ccc(-c5cnc(N)nc5)cc4)CCC3)no2)cn1` [Example 138, 2-[4-(3-{1-[4-(2-Amino-pyrimidin-5-yl)-phenyl]-cyclobutyl}-1,2,4-oxadiazol-5-yl)-pyrazol-1-yl]-N-ethyl-N-methyl-acetamide], for which the IC50 in assay [1] was 0.0028 µM; in assay [2] it was 0.038 µM.

Take `Cc1noc(C)c1-c1nc(C2(c3ccc(-c4cnc(N)nc4)cc3)CCC2)no1` [Example 164, 5-(4-{1-[5-(3,5-Dimethyl-isoxazol-4-yl)-1,2,4-oxadiazol-3-yl]-cyclobutyl}-phenyl)-pyrimidin-2-ylamine]: the concentration for half-maximal inhibition (IC50) in assay [1] worked out at 0.0055 µM; in assay [2], 0.57 µM.

For the compound `Nc1ncc(-c2ccc(C3(c4noc(-c5cn(C(c6ccccc6)(c6ccccc6)c6ccccc6)cn5)n4)CCC3)cc2)cn1` [Example 244, 5-(4-{1-[5-(1-Trityl-1H-imidazol-4-yl)-[1,2,4]oxadiazol-3-yl]-cyclobutyl}-phenyl)-pyrimidin-2-ylamine], the concentration for half-maximal inhibition (IC50) was 0.25 µM in assay [1] and more than 5 µM in assay [2].
